Source: patent US8293734B2, “Nitroimidazooxazine and nitroimidazooxazole analogues and their uses” (priority 2009, dated 2012)
In brackets after ≈: the same amount, converted by molar mass. Read-outs that look alike come from different tables or passages of the source.

How the values were obtained:
[1] = system: Trypanosoma cruzi amastigotes (Tulahuen C2C4 strain); assay: Trypanosoma cruzi assay in infected L-6 cells; assay type: cell-based; settings: L6, 96 h incubation, read-out: IC50 T. cruzi
Procedure: (§1) (c) Antiprotozoal screening. Compounds were evaluated for their activities against both Trypanosoma cruzi amastigotes and Leishmania donovani amastigotes (free or encapsulated in macrophages), according to the following protocols:
(i) Trypanosoma cruzi assay. L-6 cells (2×10^3) in medium (100 μL of RPMI 1640 supplemented with 2 mM L-glutamine plus 10% heat inactivated fetal calf serum) were seeded in 96-well microtitre plates (Costar™) and incubated at 37° C. (5% CO2) for 1d. A suspension (50 μL) of Trypanosoma cruzi trypomastigotes (5×10^3 of Tulahuen C2C4 strain, containing the β-galactosidase gene) was added, and the cells were incubated at 37° C. (5% CO2) for a further 48 h to establish the infection. The medium was removed and replaced by fresh medium and the infected cells were then incubated at 37° C. (5% CO2) for 96 h in either medium alone or in the presence of serial (3-fold) dilutions of test compounds (initially prepared as 10 mg/mL stock solutions in DMSO and diluted into medium). Benznidazole was employed as a standard in each assay. Following incubation, chlorophenol red glycoside (100 mM) in 0.1% Nonidet P40/PBS (50 μL) was added, and (after 6 h) the absorbance at 540 nm was measured and used to calculate the IC50 values.

[2] = system: L. donovani amastigotes (MHOM-ET-67/L82) in mouse macrophages; assay: Leishmania donovani infected macrophage assay; assay type: cell-based; settings: 96 h incubation, read-out: IC50 L. donovani macro
Procedure: as §1
(iii) Leishmania donovani infected macrophage assay. Freshly harvested mouse macrophages in medium (RPMI 1640 plus 10% heat inactivated fetal calf serum) were incubated at 37° C. (5% CO2) for 24 h and then infected (1:3 macrophages to amastigotes) with an axenic L. donovani amastigote culture (MHOM-ET-67/L82) in medium (SM, pH 5.4 plus 10% heat inactivated fetal calf serum). The infected macrophages were seeded at a density of 1.2×10^6/mL (by diluting in RPMI+10% FCS) in 16-well slides (Lab-tek™) and incubated at 37° C. (5% CO2) for 24 h. The medium was removed and replaced by fresh medium (RPMI 1640+10% FCS), and this was repeated following mixing. The infected macrophages were then incubated at 37° C. (5% CO2) for 96 h in either medium alone or in the presence of serial (3-fold) dilutions of test compounds (initially prepared as 10 mg/mL stock solutions in DMSO and diluted into medium). Miltefosin was employed as a standard in each assay. […], the slides were fixed (5 min in 100% MeOH) and stained (10% Giemsa, 10 min). The ratio of infected to uninfected macrophages was determined by microscopic examination, and the IC50 values were then calculated by linear regression analysis.

[3] = system: replicating Mycobacterium tuberculosis; assay: MABA microplate Alamar blue assay, MIC (aerobic); assay type: cell-based; settings: 192 h
[4] = system: Axenically grown L. donovani amastigotes (MHOM-ET-67/L82); assay: Axenic Leishmania donovani assay; assay type: cell-based; settings: 70 h incubation, read-out: IC50 L. donovani axen
Procedure: as §1
(ii) Axenic Leishmania donovani assay. Axenically grown L. donovani amastigotes (MHOM-ET-67/L82) from a healthy culture in log phase were seeded at a density of 1×10^6/mL medium (SM, pH 5.4 plus 10% heat inactivated fetal calf serum) in 96-well microtitre plates (Costar™) and incubated at 37° C. (5% CO2) for 70 h in either medium alone or in the presence of serial (3-fold) dilutions of test compounds (initially prepared as 10 mg/mL stock solutions in DMSO and diluted into medium). Miltefosin was employed as a standard in each assay. After incubation, Resazurin fluorescent dye was added to each well, and incubation was continued for an additional 2 h. The IC50 values were determined from measurements of the fluorescence data.

[5] = system: M. tuberculosis bacteria in the non-replicating state; assay: LORA low-oxygen-recovery assay, MIC (anaerobic); assay type: cell-based; settings: Mycobacterium tuberculosis, 264 h; 11 day luminescence-based low-oxygen-recovery assay
VERO cells (CCL-81) = assay: Mammalian cell cytotoxicity assay (tetrazolium dye); assay type: cell-based; settings: Chlorocebus sabaeus, read-out: IC50 VERO
Procedure: (b) Mammalian cell cytotoxicity assay. This was assessed against VERO cells (CCL-81, American Type Culture Collection) in a 72 h exposure, using a tetrazolium dye assay (Falzari et al., 2005).

M. tuberculosis Erdman = assay: In vivo mouse acute TB infection assay; set-up: species or system BALB/c mice; settings: 100 mg/kg orally daily 5 days a week for 3 weeks; ratio of average lung CFU reduction to that of PA-824

| SMILES | IC50 [1] | IC50 [2] | MIC [3] | IC50 [4] | melting point | MIC [5] | IC50 (VERO cells (CCL-81); 72 h exposure) | IC50 (VERO cells (CCL-81); 72 h) | In vivo efficacy vs PA-824 (M. tuberculosis Erdman) |
| --- | --- | --- | --- | --- | --- | --- | --- | --- | --- |
| CC1(COc2ccc(OCc3ccccc3)cc2)Cn2cc([N+](=O)[O-])nc2O1 (stereo not drawn) [Compound 7, 2-{[4-(benzyloxy)phenoxy]methyl}-2-methyl-6-nitro-2,3-dihydroimidazo[2,1-b][1,3]oxazole] | 3.2 µg/mL (≈ 8.39 µM) | 0.4 µg/mL (≈ 1.05 µM) | 0.53 µM (≈ 0.202 µg/mL) | 0.016 µg/mL (≈ 0.042 µM) | 162 to 165 °C | 24 µM (≈ 9.15 µg/mL) |  |  |  |
| COc1ccc(-c2ccc(OCC3(C)Cn4cc([N+](=O)[O-])nc4O3)cc2)cn1 (stereo not drawn) [Compound 8, 2-{[4-(6-methoxy-3-pyridinyl)phenoxy]methyl}-2-methyl-6-nitro-2,3-dihydroimidazo[2,1-b][1,3]oxazole] | 4.1 µg/mL (≈ 10.7 µM) | 0.38 µg/mL (≈ 0.994 µM) | 0.04 µM (≈ 0.0153 µg/mL) | 0.017 µg/mL (≈ 0.0445 µM) | 217 to 219 °C | 14 µM (≈ 5.35 µg/mL) | > 128 µM |  |  |
| CC1(COc2ccc(-c3ccc(C#N)cc3)cc2)Cn2cc([N+](=O)[O-])nc2O1 (stereo not drawn) [Compound 9, 4′-[(2-methyl-6-nitro-2,3-dihydroimidazo[2,1-b][1,3]oxazol-2-yl)methoxy][1,1′-biphenyl]-4-carbonitrile] | 1.2 µg/mL (≈ 3.19 µM) | 0.2 µg/mL (≈ 0.531 µM) | 0.04 µM (≈ 0.0151 µg/mL) | 0.016 µg/mL (≈ 0.0425 µM) | 180 to 181 °C | 3.7 µM (≈ 1.39 µg/mL) | > 128 µM |  |  |
| CC1(COc2ccc(-c3ccc(C(F)(F)F)cc3)cc2)Cn2cc([N+](=O)[O-])nc2O1 (stereo not drawn) [Compound 11, 2-methyl-6-nitro-2-({[4′-(trifluoromethyl)[1,1′-biphenyl]-4-yl]oxy}methyl)-2,3-dihydroimidazo[2,1-b][1,3]oxazole] | 18 µg/mL (≈ 42.9 µM) | 0.47 µg/mL (≈ 1.12 µM) | 0.08 µM (≈ 0.0335 µg/mL) | 0.028 µg/mL (≈ 0.0668 µM) | 219 to 220 °C |  |  | > 128 µM |  |
| CC1(COc2ccc(-c3ccc(OC(F)(F)F)cc3)cc2)Cn2cc([N+](=O)[O-])nc2O1 (stereo not drawn) [Compound 12, 2-methyl-6-nitro-2-({[4′-(trifluoromethoxy)[1,1′-biphenyl]-4-yl]oxy}methyl)-2,3-dihydroimidazo[2,1-b][1,3]oxazole] | 9.4 µg/mL (≈ 21.6 µM) | 0.74 µg/mL (≈ 1.7 µM) |  | 0.016 µg/mL (≈ 0.0368 µM) | 209 to 211 °C |  | > 128 µM |  | 112 |
| CC1(COCc2ccc(OCc3ccccc3)cc2)Cn2cc([N+](=O)[O-])nc2O1 (stereo not drawn) [Compound 26, 2-({[4-(benzyloxy)benzyl]oxy}methyl)-2-methyl-6-nitro-2,3-dihydroimidazo[2,1-b][1,3]oxazole] | 0.34 µg/mL (≈ 0.86 µM) | 0.36 µg/mL (≈ 0.91 µM) | 0.3 µM (≈ 0.119 µg/mL) | 0.013 µg/mL (≈ 0.0329 µM) | 130 to 131 °C | 50 µM (≈ 19.8 µg/mL) | > 128 µM |  |  |
| O=[N+]([O-])c1cn2c(n1)OC(COCc1cccc(OC(F)(F)F)c1)CC2 (stereo not drawn) [Compound 47, 2-nitro-7-({[3-(trifluoromethoxy)benzyl]oxy}methyl)-6,7-dihydro-5H-imidazo[2,1-b][1,3]oxazine] | 1.1 µg/mL (≈ 2.95 µM) | 0.084 µg/mL (≈ 0.225 µM) | 3.8 µM (≈ 1.42 µg/mL) | 0.041 µg/mL (≈ 0.11 µM) | 100 to 112 °C | 15 µM (≈ 5.6 µg/mL) |  |  |  |
| O=[N+]([O-])c1cn2c(n1)OC(COCc1cccc(-c3ccc(OC(F)(F)F)cc3)c1)CC2 (stereo not drawn) [Compound 50, 2-nitro-7-({[4′-(trifluoromethoxy)[1,1′-biphenyl]-3-yl]methoxy}methyl)-6,7-dihydro-5H-imidazo[2,1-b][1,3]oxazine] | 6.3 µg/mL (≈ 14 µM) | 0.15 µg/mL (≈ 0.334 µM) | 0.24 µM (≈ 0.108 µg/mL) | 0.041 µg/mL (≈ 0.0912 µM) | 117 to 119 °C | 5.1 µM (≈ 2.29 µg/mL) | > 128 µM |  |  |
| O=[N+]([O-])c1cn2c(n1)OC(COCc1ccc(-c3ccc(OC(F)(F)F)cc3)cc1)CC2 (stereo not drawn) [Compound 51, 2-nitro-7-({[4′-(trifluoromethoxy)[1,1′-biphenyl]-4-yl]methoxy}methyl)-6,7-dihydro-5H-imidazo[2,1-b][1,3]oxazine] | 15 µg/mL (≈ 33.4 µM) | 0.17 µg/mL (≈ 0.378 µM) | 0.055 µM (≈ 0.0247 µg/mL) | 0.046 µg/mL (≈ 0.102 µM) | 159 to 161 °C | 1.5 µM (≈ 0.674 µg/mL) | > 128 µM |  |  |
| CC1(COCc2ccc(OCc3ccccc3)cc2)CCn2cc([N+](=O)[O-])nc2O1 (stereo not drawn) [Compound 54, 7-({[4-(benzyloxy)benzyl]oxy}methyl)-7-methyl-2-nitro-6,7-dihydro-5H-imidazo[2,1-b][1,3]oxazine] | 0.74 µg/mL (≈ 1.81 µM) | 0.095 µg/mL (≈ 0.232 µM) | 0.2 µM (≈ 0.0819 µg/mL) | 0.047 µg/mL (≈ 0.115 µM) | 109 to 111 °C | 1.4 µM (≈ 0.573 µg/mL) | > 128 µM |  |  |
| O=[N+]([O-])c1cn2c(n1)OCC(COCc1cccc(OC(F)(F)F)c1)C2 (stereo not drawn) [Compound 71, 2-nitro-6-({[3-(trifluoromethoxy)benzyl]oxy}methyl)-6,7-dihydro-5H-imidazo[2,1-b][1,3]oxazine] | 0.56 µg/mL (≈ 1.5 µM) | 0.65 µg/mL (≈ 1.74 µM) | 0.33 µM (≈ 0.123 µg/mL) | 0.2 µg/mL (≈ 0.536 µM) | 60 to 61 °C | 15 µM (≈ 5.6 µg/mL) | > 128 µM |  |  |
| O=[N+]([O-])c1cn2c(n1)OCC(COCc1cccc(-c3ccc(OC(F)(F)F)cc3)c1)C2 (stereo not drawn) [Compound 74, 2-nitro-6-({[4′-(trifluoromethoxy)[1,1′-biphenyl]-3-yl]methoxy}methyl)-6,7-dihydro-5H-imidazo[2,1-b][1,3]oxazine] | 0.94 µg/mL (≈ 2.09 µM) | 0.54 µg/mL (≈ 1.2 µM) | 0.22 µM (≈ 0.0989 µg/mL) | 0.16 µg/mL (≈ 0.356 µM) | 78 to 80 °C | 2.9 µM (≈ 1.3 µg/mL) | > 128 µM |  |  |
| O=[N+]([O-])c1cn2c(n1)OCC(COCc1ccc(-c3ccc(OC(F)(F)F)cc3)cc1)C2 (stereo not drawn) [Compound 75, 2-nitro-6-({[4′-(trifluoromethoxy) [1,1′-biphenyl]-4-yl]methoxy}methyl)-6,7-dihydro-5H-imidazo[2,1-b][1,3]oxazine] | 0.47 µg/mL (≈ 1.05 µM) | 0.67 µg/mL (≈ 1.49 µM) | 0.3 µM (≈ 0.135 µg/mL) | 0.2 µg/mL (≈ 0.445 µM) | 135 to 138 °C | > 128 µM |  | > 128 µM |  |
